Measurements from patent US8815933B2 (EnVivo Pharmaceuticals, Inc., priority 2008, dated 2014).

Columns and labels:
[1] = maximum plasma concentration in human SAD/MAD clinical trials; assay type: in vivo; conditions: for Cmax: plasma, oral
Protocol: Multiple ascending dose (MAD) human clinical trials were conducted.
These values are 35-2000 times lower than would have anticipated if efficacy was to be achieved when the free plasma concentration reached the Ki or the ECref concentrations. […] These values are 9.4-667 times lower than expected.

[2] = free fraction of drug in human plasma
Protocol: (§1) The free drug concentration in plasma ([free drug]plasma) is determined by measuring the total drug concentration in the plasma ([total drug]plasma) and the free fraction of the drug, i.e., the fraction of the drug that is not bound to plasma protein (fuplasma):[free drug]plasma=[total drug]plasmaX fuplasma. The total plasma drug concentration and the fraction that binds to plasma protein can both be measured using techniques known to those of skill in the art.

[3] = half-life in humans (clinical trials); assay type: in vivo, Human; conditions: for half-life: plasma, 1 mg
Text: The unexpectedly long half-life in humans has several advantages. It allows for once a day dosing. The drug will also have a very small dynamic plasma range over the course of a day (about 15-20%). Thus, if a patient misses a daily dose, the plasma level and the consequent brain level will not be altered by a great degree. This means that the beneficial effects of the drug will be less dependent upon careful adherence to a specific dosing scheme. Third, long half-life and slow elimination also mean that the final dose will be lower than expected. This readily observed by looking at the Cmax values on Day 1 versus Day 21. The Cmax values on Day 21 are about 3.6-4.2 times higher than the Day 1 values. This ratio will translate into a dose that is 3.6-4.2 times lower than would normally be expected due to this favorable accumulation.

half-life in dog = conditions: in vivo, iv
[4] = free fraction of drug in rat plasma
Protocol: as §1

[5] = free fraction of drug in dog plasma
Protocol: as §1

half-life in rat = conditions: in vivo, iv, 1 mg/kg
normal subjects [6] = assay: CogState battery in MAD studies; assay type: in vivo, Human
Protocol: The impact of the test compound on cognition in normal subjects was assessed as described below. In these studies, subjects were treated with the test compound dissolved in cranberry juice. In the MAD (Multiple Ascending Dose) studies cognition was assessed using tests from the CogState battery (cogstate.com). […] The CogState battery is a proprietary computerized cognitive battery of tests measure various cognitive domains including: attention, identification capability, working memory, visual memory, and executive function. […] The magnitude of the effects were, in many cases, significant with effect sizes being >0.4 (a threshold effect size which is commonly accepted as having clinical significance).

[7] = test system: patients suffering from schizophrenia; assay: P50 sensory gating evoked response in schizophrenia patients; assay type: in vivo, Human
Protocol: The test described above was used to study the effect of the test compound on cognition in patients suffering from schizophrenia. Prior to testing, the patients were dosed with: 1 mg of the test compound daily, 0.3 mg of the test compound daily or were administered a placebo for 20 days. Subjects were tested as described below. P50 waves were elicited by clicks, 1 msec in duration, grouped in pairs in the classic S1-S2 sequence and presented through earpieces inserted into the auditory canals. Click intensity was adjusted individually to 50 dB above the hearing threshold. The offset-to-onset time from S1 to S2 was fixed at 500 msec. The offset-to-onset time between click pairs was varied from 7-11 sec. […] P50 response amplitude was calculated as the voltage difference between the P50 peak and the preceding negative trough. The P50 gating ratio was then calculated after (Olincy et al., 2006) as the amplitude of the P50 response to the second (test) stimulus divided by the amplitude of the P50 response to the first (conditioning) stimulus. […] The P50 amplitude difference (Fuerst et al., 2007) was also measured. […] Unfortunately, in the case of the P50/[…] gating study, it was necessary to discard several patients and post-treatment assignment time points from the analysis because, in those instances, a P50 waveform was not identifiable and therefore could not be measured. […]

normal subjects [8] = assay: Digit Symbol Substitution Test (DSST) in SAD study; assay type: in vivo, Human; conditions: daily dose as low as 1 mg
Protocol: The impact of the test compound on cognition in normal subjects was assessed as described below. In these studies, subjects were treated with the test compound dissolved in cranberry juice.
The impact of the test compound on cognition in normal subjects was assessed in a SAD (Single Ascending Dose) study with the Digit Symbol Substitution Test (DSST). […] The positive effects of the test compound in the DSST indicate a beneficial effect on working memory and executive function.

[9] = test system: patients suffering from schizophrenia; assay: MMN and P300 evoked responses (oddball sequence) in schizophrenia patients; assay type: in vivo, Human
Protocol: The test described above was used to study the effect of the test compound on cognition in patients suffering from schizophrenia. Prior to testing, the patients were dosed with: 1 mg of the test compound daily, 0.3 mg of the test compound daily or were administered a placebo for 20 days. Subjects were tested as described below.
The MMN and P300 components were elicited during the so-called oddball sequence. The stimulus sequence was a series of lower (500 Hz) and higher (1000 Hz) pitched pure tones presented at a rate of 1 tone per 0.6 sec. The tones were 50 msec in duration, 50 dB above hearing level, and randomly interspersed. The higher pitched tone was the oddball event. Across the series of 600 tones, it occurred at a probability of 0.2. The other tone occurred at the complementary probability of 0.8. Patients were instructed to ignore the tones and instead attend to a magazine held in the lap.
During the task, EEG and EOG activity were digitized at a rate of 500 Hz per channel for 50 msec preceding and 500 msec following stimulus onset. Trials contaminated by eyeblinks or eye movements were removed. An off-line program digitally filtered (bandpass=0.1-30 Hz, 12 db roll-off) responses to the rare and frequent events and constructed averaged event related responses for each electrode. At the FCz electrode, the MMN was measured by an automated algorithm that computed the summed amplitude, relative to the prestimulus baseline, over a 100-200 msec time window following the onsets of the rare (oddball) and frequent tones. MMN was then recalculated as the voltage difference between these responses. P300 amplitude was measured at the Pz electrode site as the peak amplitude between 250 and 500 msec following stimulus onset.
MMN and P300 amplitude reflect activation of multiple precortical and cortical pathways sensitive to stimulus novelty, short term memory, and attention. MMN was calculated as the voltage difference over 100-200 msec post-stimulus onset between the responses to the rare and frequent stimuli. […] P300 is not entirely independent of MMN. P300 was calculated as the peak amplitude relative to the average voltage of the waveform during the 50 msec prestimulus period. A more positive P300 response is indicative of improved cognitive function. P300 is maximal in amplitude when the eliciting stimulus is both rare and task relevant (i.e., attended). In the present study, the rare stimulus was not task relevant. In fact, the patient was instructed to perform no task and to ignore the stimuli. In the present study, therefore, P300 amplitude is very small in comparison to amplitudes recorded under active task conditions. The present P300 component is more similar to the small, frontally-generated P300a described by Knight and colleagues than the large, parietally-generated P300b described in most studies of attentional dysfunction in schizophrenia.
In the analysis of P50 and N100 the baseline value was the covariate and all values obtained during the treatment period were averaged together. Data loss from unidentifiable MMN and P300 components was minimal. These analyses were conducted upon data obtained from n=4 patients treated with placebo, n=7 patients treated with 0.3 mg of the test compound, and n=8 patients treated with 1.0 mg of the test compound.

[10] = maximum plasma concentration in human SAD/MAD clinical trials; assay type: in vivo; conditions: SAD, Day 1, 3.5 mg

Compound: O=C(N[C@H]1CN2CCC1CC2)c1cc2cccc(Cl)c2s1
- dynamic plasma range over the course of a day ([1]; human, once a day dosing): 15-20%
- Human fuplasma [2]: 0.129
- half-life ([3]; human, oral, read-out: observed half-life in humans (converted)): 60 h
- half-life ([3]; po, Human, p.o., read-out: t1/2): 50.1 to 70.1 h
- human half-life suggested by initial allometric scaling ([3]; scaled from rat and dog half-life): about 8 hours
- half-life (half-life in dog; 0.5 mg/kg): 5.39 h
- half-life (half-life in dog; 3 mg/kg): 13 h
- Rat fuplasma [4]: 0.112
- Dog fuplasma [5]: 0.107
- half-life (half-life in rat): 2.77 h

Compound: Cl.O=C(N[C@H]1CN2CCC1CC2)c1cc2cccc(Cl)c2s1
- maximum free plasma concentration ([1]; 0.3 mg dose, human): 0.073 to 0.283 nM
- free plasma concentration ([1]; 1.0 mg doses, human): 0.237 to 1.06 nM
- Cmax free ([1]; MAD1, Day 1, 1 mg): 0.252 nM
- Cmax total ([1]; MAD1, Day 1, 1 mg): 1.96 nM
- Cmax free ([1]; MAD1, Day 7, 1 mg): 0.853 nM
- Cmax total ([1]; MAD1, Day 7, 1 mg): 6.61 nM
- Cmax free ([1]; MAD1, Day 14, 1 mg): 1.06 nM
- Cmax total ([1]; MAD1, Day 14, 1 mg): 8.23 nM
- Cmax free ([1]; MAD2, Day 1, 0.1 mg): 0.022 nM
- Cmax total ([1]; MAD2, Day 1, 0.1 mg): 0.172 nM
- Cmax free ([1]; MAD2, Day 1, 1 mg): 0.251 nM
- Cmax total ([1]; MAD2, Day 1, 1 mg): 1.943 nM
- Cmax free ([1]; MAD2, Day 21, 0.1 mg): 0.093 nM
- Cmax total ([1]; MAD2, Day 21, 0.1 mg): 0.724 nM
- Cmax free ([1]; MAD2, Day 21, 1 mg): 0.974 nM
- Cmax total ([1]; MAD2, Day 21, 1 mg): 7.547 nM
- Cmax free ([1]; MAD3, Day 1, 0.3 mg): 0.073 nM
- Cmax total ([1]; MAD3, Day 1, 0.3 mg): 0.568 nM
- Cmax free ([1]; MAD3, Day 1, 1 mg): 0.221 nM
- Cmax total ([1]; MAD3, Day 1, 1 mg): 1.71 nM
- Cmax free ([1]; MAD3, Day 21, 0.3 mg): 0.283 nM
- Cmax total ([1]; MAD3, Day 21, 0.3 mg): 2.195 nM
- Cmax free ([1]; MAD3, Day 21, 1 mg): 0.800 nM
- Cmax total ([1]; MAD3, Day 21, 1 mg): 6.20 nM
- Cmax free ([1]; SAD, Day 1, 1 mg): 0.237 nM
- Cmax total ([1]; SAD, Day 1, 1 mg): 1.84 nM
- Cmax total ([1]; SAD, Day 1, 3.5 mg): 6.42 nM
- Cmax ([1]; human, 0.1 mg, MAD2, Day 1, 0.1 mg): 0.055 ng/mL
- Cmax ([1]; human, 0.1 mg, MAD2, Day 21, 0.1 mg): 0.232 ng/mL
- Cmax ([1]; human, 0.3 mg, MAD3, Day 1, 0.3 mg): 0.182 ng/mL
- Cmax ([1]; human, 0.3 mg, MAD3, Day 21, 0.3 mg): 0.704 ng/mL
- Cmax ([1]; human, 1 mg, MAD1, Day 1, 1 mg): 0.63 ng/mL
- Cmax ([1]; human, 1 mg, MAD1, Day 7, 1 mg): 2.12 ng/mL
- Cmax ([1]; human, 1 mg, MAD1, Day 14, 1 mg): 2.64 ng/mL
- Cmax ([1]; human, 1 mg, MAD2, Day 1, 1 mg): 0.623 ng/mL
- Cmax ([1]; human, 1 mg, MAD2, Day 21, 1 mg): 2.42 ng/mL
- Cmax ([1]; human, 1 mg, MAD3, Day 1, 1 mg): 0.547 ng/mL
- Cmax ([1]; human, 1 mg, MAD3, Day 21, 1 mg): 1.99 ng/mL
- Cmax ([1]; human, 1 mg, SAD, Day 1, 1 mg): 0.59 ng/mL
- Cmax ([1]; human, 3.5 mg, SAD, Day 1, 3.5 mg): 2.06 ng/mL
- effect sizes (normal subjects [6]; CogState, in many cases): > 0.4
- effect on attention (normal subjects [6]; CogState, normal subjects): without having a stimulatory effect on attention
- impact on visual motor skills, learning, executive function, and delayed memory (normal subjects [6]; normal subjects, MAD studies, CogState): positive impact
- cognition in CogState battery (normal subjects [6]; normal subjects, MAD studies, daily dose as low as 1 mg): pro-cognitive effects
- P50 amplitude difference (C-T), baseline-adjusted ([7]; 1.0 mg daily for 20 days vs placebo, FIG. 1B, F=3.97, P=0.07): normalization at the high dose
- effects on the P50 component of the evoked response ([7]; limited to 1.0 mg dose, p=0.1): technically not significant
- cognition in Digit Symbol Substitution Test (normal subjects [8]): pro-cognitive effects
- MMN component vs placebo ([9]; 0.3 mg daily for 20 days): significantly (p<0.05) larger
- P300 component vs placebo ([9]; 0.3 mg daily for 20 days): significantly (p<0.05) larger
- MMN component vs placebo ([9]; 1.0 mg daily for 20 days): significantly (p<0.05) larger
- P300 component vs placebo ([9]; 1.0 mg daily for 20 days): significantly (p<0.05) larger
- MMN amplitude ([9]; 0.3 and 1.0 mg daily, dose-related, F=4.96, P=0.02, FIG. 3A): increased
- P300 amplitude ([9]; 0.3 and 1.0 mg daily, dose-related, F=6.88, P=0.008, FIG. 3B): increased
- Cmax free [10]: 0.828 nM
